We go through three compounds from patent US20040254371A1, “New benzothiazine and benzothiadiazine compounds” (priority 2003, published 2004).

The test system of the assay is AMPA receptors. The assay can be described thus: Excitatory currents induced by AMPA in Xenopus oocytes (voltage-clamp). It counts as cell-based. The following applies: Xenopus oocytes injected with rat cerebral cortex poly(A+) mRNA, AMPA 10 μM, 20-24° C. The protocol:
Study of the excitatory currents induced by AMPA in Xenopus oocytes
mRNA's are prepared from cerebral cortex of male Wistar rats by the guanidinium thiocyanate/phenol/chloroform method. The poly (A^+) mRNA's are isolated by chromatography on oligo-dT cellulose and injected at a level of 50 ng per oocyte. The oocytes are incubated for 2 to 3 days at 18° C. to permit expression of the receptors and are then stored at 8-10° C.
Electrophysiological recording is carried out in a Plexiglass® chamber at 20-24° C. in OR2 medium (J. Exp. Zool., 1973, 184, 321-334) by the “voltage-clamp” method using two electrodes, with a third electrode placed in the bath serving as reference.
All the compounds are applied via the incubation medium and the electric current is measured at the end of the application period. AMPA is used in a concentration of 10 μM. For each compound studied, the concentration that doubles (EC2X) or quintuples (EC5X) the intensity of the current induced by AMPA alone (5 to 50 nA) is determined.
With `O=S1(=O)NC2CCCN2c2ccc(Oc3cccc(-c4cnco4)c3)cc21` (stereo not drawn) [Example 18, 7-[3-(1,3-Oxazol-5-yl)phenoxy]-2,3,3a,4-tetrahydro-1H-pyrrolo-[2,1-c][1,2,4]benzothiadiazine 5,5-dioxide], the “EC2X (concentration that doubles the intensity of the current induced by AMPA alone)” value (from here on “EC2X”) was 0.66 µM and the “EC5X (concentration that quintuples the intensity of the current induced by AMPA alone)” value (“EC5X” for short) was 4 µM.

In the case of `O=S1(=O)NC2CCCN2c2ccc(Oc3cccc(-c4ccoc4)c3)cc21` (stereo not drawn) [Example 17, 7-[3-(3-Furyl)phenoxy]-2,3,3a,4-tetrahydro-1H-pyrrolo[2,1-c][1,2,4]benzothiadiazine 5,5-dioxide], the “EC2X” value turned out to be 4.5 µM and the “EC5X” value was determined as 11.5 µM.

For `O=S1(=O)NC2CCCN2c2ccc(Oc3cccc(-c4nnn[nH]4)c3)cc21` (stereo not drawn) [Example 1, 7-[3-(1H-Tetrazol-5-yl)phenoxy]-2,3,3a,4-tetrahydro-1H-pyrrolo-[2,1-c][1,2,4]benzothiadiazine 5,5-dioxide], the “EC2X” value was determined as 0.2 µM and the “EC5X” value stood at 0.8 µM.
